The series in a line: RP, Thermo Scientific Acclaim RSLC 120 C18, 100 × 2.1 mm, 2.2 µm, 30 °C, 0.2 mL/min, estimated dead time 1.1 min; A: 90% water + 10% methanol + 0.01% formic acid + 5 mM ammonium formate, pH 3.61; B: methanol + 0.01% formic acid + 5 mM ammonium formate, pH 3.61; gradient (min/%B) 0/1 1/1 2/39 13/99.9 15/99.9 15.1/1 20.1/1. The settings on record: stereoisomer not certain.

This passage reports LC retention time results from the RepoRT retention time repository (doi:10.1021/acs.analchem.2c02893).

For the molecule `CC1NCCOC1c1ccccc1` (centres undefined) [Phenmetrazine], the LC retention time was 4.14 min.

As to `O=C1OC(c2ccc(O)cc2)(c2ccc(O)cc2)c2ccccc21` [Phenolphthalein], the LC retention time is 7.06 min. Next, `CCC(c1ccccc1)c1c(O)c2ccccc2oc1=O` (centres undefined) [Phenprocoumon]: 9.05 min; `CC(C)(N)Cc1ccccc1` [Phentermine]: 4.64 min; `CCOC(=O)C(SP(=S)(OC)OC)c1ccccc1` (centres undefined) [Phenthoate]: 10.7 min. Under `Cc1ccc(N(CC2=NCCN2)c2cccc(O)c2)cc1` [Phentolamine] stands 5.86 min. Under `O=S(=O)(O)c1ccc2nc(-c3ccccc3)[nH]c2c1` [Phenylbenzimidazole sulfonic acid] stands 4.63 min; under `CCCCC1C(=O)N(c2ccccc2)N(c2ccccc2)C1=O` [Phenylbutazone], 8.98 min. On to `CNCC(O)c1cccc(O)c1` (stereo not drawn) [Phenylephrine (broad peak)], for which the LC retention time is 1.93 min. Take `CN(C)CCOc1ccccc1Cc1ccccc1` [Phenyltoloxamine]: the LC retention time is 7.29 min.

As to `O=C1NC(=O)C(c2ccccc2)(c2ccccc2)N1` [Phenytoin], the LC retention time is 7.08 min.

Consider `CN1CCC23c4c5ccc(OCCN6CCOCC6)c4OC2C(O)C=CC3C1C5` (centres undefined) [Pholcodine], for which the LC retention time is 2.73 min.

Turning to `CNC(C)Cc1ccc(O)cc1` (centres undefined) [Pholedrine (Amphetamine-P-Hydroxy-methyl)], the LC retention time is 2.91 min.

For the molecule `CCOP(=O)(OCC)SCSCC` [Phorate-oxon], the LC retention time is 8.6 min.

Regarding `CCOP(=S)(OCC)SCSCC` [Phorate], the LC retention time is 11.4 min. Under `CCOP(=S)(OCC)SCn1c(=O)oc2cc(Cl)ccc21` [Phosalone] stands 11.3 min.

As to `COP(=S)(OC)SCN1C(=O)c2ccccc2C1=O` [Phosmet], the LC retention time is 8.94 min. Under `CCN(CC)C(=O)C(Cl)=C(C)OP(=O)(OC)OC` [Phosphamidon (Dimecron)] stands 6.27 min.

Regarding `CCOP(=S)(OCC)ON=C(C#N)c1ccccc1` [Phoxim], the LC retention time is 11.2 min. As to `NC(=O)c1ccccc1C(=O)O` [Phthalamic acid], the LC retention time is 2.87 min. In the case of `CCCCOC(=O)c1ccccc1C(=O)OCc1ccccc1` [Phthalate-Benzyl butyl], the LC retention time was 12.4 min. Regarding `CCCCOC(=O)c1ccccc1C(=O)OCCCC` [Phthalate-Di-n-butyl], the LC retention time was 12 min. For the molecule `CCCCCCCCOC(=O)c1ccccc1C(=O)OCCCCCCCC` [Phthalate-Di-n-octyl], the LC retention time was 15.3 min.

On to `O=C(Oc1ccccc1)c1ccccc1C(=O)Oc1ccccc1` [Phthalate-Diphenyl], for which the LC retention time is 11.2 min.

As to `CCCCC(CC)COC(=O)c1ccccc1C(=O)OCC(CC)CCCC` (centres undefined) [Phthalate-bis-(2-ethylhexyl). DEHP], the LC retention time is 15 min. Under `CNC(=O)Oc1ccc2c(c1)C1(C)CCN(C)C1N2C` (centres undefined) [Physostigmine] stands 3.89 min; under `Nc1c(Cl)c(Cl)nc(C(=O)O)c1Cl` [Picloram], 3.56 min; under `O=C(Nc1ccc(F)cc1)c1cccc(Oc2cccc(C(F)(F)F)c2)n1` [Picolinafen], 12.3 min.

Turning to `COC=C(C(=O)OC)c1ccccc1COc1cccc(C(F)(F)F)n1` [Picoxystrobin], the LC retention time was 10.5 min. Under `CCC1C(=O)OCC1Cc1cncn1C` (centres undefined) [Pilocarpine] stands 2.74 min. Next, `O=c1[nH]c2ccccc2n1C1CCN(CCCC(c2ccc(F)cc2)c2ccc(F)cc2)CC1` [Pimozide]: 8.73 min; `CCc1ccc(CCOc2ccc(CC3SC(=O)NC3=O)cc2)nc1` (centres undefined) [Pioglitazone]: 9.09 min; `NC(=O)C1(N2CCCCC2)CCN(CCCC(=O)c2ccc(F)cc2)CC1` [Pipamperone]: 6.11 min. Under `c1cc2c(cc1CN1CCNCC1)OCO2` [Piperazine -1-Piperonyl] stands 4.22 min; under `Clc1ccc(C(c2ccccc2)N2CCNCC2)cc1` (centres undefined) [Piperazine -1[(4-chlorophenyl) phenyl methyl]], 8.53 min. For `CCCc1nn(C)c2c(=O)[nH]c(-c3cc(C(=O)CN4CCCCC4)ccc3OCC)nc12` [Piperiacetildenafil], the LC retention time was 7.14 min.

`CCCCOCCOCCOCc1cc2c(cc1CCC)OCO2` [Piperonyl butoxide]: the LC retention time is 12.4 min.

In the case of `CN(C)S(=O)(=O)c1ccc2c(c1)N(CCCN1CCC(CCO)CC1)c1ccccc1S2` [Pipotiazine], the LC retention time was 7.39 min. Next, `OC(c1ccccc1)(c1ccccc1)C1CCCCN1` (centres undefined) [Pipradrol]: 5.78 min. Under `CCOC(=O)C=C1SC(N2CCCCC2)C(=O)N1CC` (centres undefined) [Piprozolin] stands 9.85 min; under `CN1CCN(CC(=O)N2c3ccccc3C(=O)Nc3cccnc32)CC1` [Pirenzepine], 4.11 min. Next, `NS(=O)(=O)c1cc(C(=O)O)cc(N2CCCC2)c1Oc1ccccc1` [Piretanide]: 7.17 min. `CNc1nc(C)c(C)c(OC(=O)N(C)C)n1` [Pirimicarb-desmethyl]: the LC retention time is 5.89 min.

As for `Cc1nc(N(C)C)nc(OC(=O)N(C)C)c1C` [Pirimicarb], the LC retention time is 7.77 min. Under `CCOP(=S)(OCC)Oc1cc(C)nc(N(CC)CC)n1` [Pirimiphos-ethyl] stands 12.3 min; under `CCN(CC)c1nc(C)cc(OP(=S)(OC)OC)n1` [Pirimiphos-methyl], 11.3 min. Take `N#CC(CCN1CCC(C(N)=O)(N2CCCCC2)CC1)(c1ccccc1)c1ccccc1` [Piritramide]: the LC retention time is 8.19 min. Under `CC1CCCC(C)N1CCCC(O)(c1ccccc1)c1ccccn1` (centres undefined) [Pirmenol] stands 6.01 min. Next, `CN1C(C(=O)Nc2ccccn2)=C(O)c2ccccc2S1(=O)=O` [Piroxicam]: 6.84 min. Turning to `COC(=O)c1ccccc1C(=O)c1ccc(OCCN2CCCCC2)cc1` [Pitofenone], the LC retention time was 5.44 min. Next, `CN1CCC(=C2c3ccccc3CCc3sccc32)CC1` [Pizotifen]: 7.86 min; `CC(=O)Nc1ccc(OCC(O)CNC(C)C)cc1` (centres undefined) [Practolol]: 3.34 min. In the case of `CCC[N+]12C(O)C(CC)C3CC1C1N(C)c4ccccc4C14CC2C3C4O` (centres undefined) [Prajmaline], the LC retention time was 6.07 min.

Consider `CCCNC1CCc2nc(N)sc2C1` (centres undefined) [Pramipexole], for which the LC retention time was 2.64 min. Take `CCC(C)C(=O)OC1CC(O)C=C2C=CC(C)C(CCC(O)CC(O)CC(=O)O)C21` (centres undefined) [Pravastatin]: the LC retention time was 8.36 min.

`O=C1CN=C(c2ccccc2)c2cc(Cl)ccc2N1CC1CC1` [Prazepam]: the LC retention time is 10.6 min. Under `O=C(C1CCCCC1)N1CC(=O)N2CCc3ccccc3C2C1` (centres undefined) [Praziquantel] stands 9.32 min; under `COc1cc2nc(N3CCN(C(=O)c4ccco4)CC3)nc(N)c2cc1OC` [Prazosin], 5.34 min; under `CC1CC2C(C(O)CC3(C)C2CCC3(O)C(=O)CO)C2(C)C=CC(=O)C=C12` (centres undefined) [Prednisolone-Methyl], 8.75 min.

For `CC12C=CC(=O)C=C1CCC1C2C(O)CC2(C)C1CCC2(O)C(=O)CO` (centres undefined) [Prednisolone], the LC retention time is 7.84 min. Under `CC12C=CC(=O)C=C1CCC1C2C(=O)CC2(C)C1CCC2(O)C(=O)CO` (centres undefined) [Prednisone] stands 7.85 min; under `CC(C)CC(CN)CC(=O)O` (centres undefined) [Pregabalin], 3.88 min; under `CC(Cc1ccccc1)NCCC(c1ccccc1)c1ccccc1` (centres undefined) [Prenylamine], 8.89 min. Regarding `CCCOCCN(C(=O)CCl)c1c(CC)cccc1CC` [Pretilachlor], the LC retention time was 11.8 min. Take `CCCNC(C)C(=O)Nc1ccccc1C` (centres undefined) [Prilocaine]: the LC retention time was 4.69 min. Next, `COc1cc(NC(C)CCCN)c2ncccc2c1` (centres undefined) [Primaquine]: 6.82 min. `CCC1(c2ccccc2)C(=O)NCNC1=O` [Primidone]: the LC retention time was 5.29 min. For the molecule `CCCC(C(=O)OCCN(CC)CC)(c1ccccc1)c1ccccc1` [Proadifen], the LC retention time is 9.41 min. Under `CCN(CC)CCNC(=O)c1ccc(N)cc1` [Procainamide] stands 2.83 min; under `CCN(CC)CCOC(=O)c1ccc(N)cc1` [Procaine], 3.21 min; under `CCCN(CCOc1c(Cl)cc(Cl)cc1Cl)C(=O)n1ccnc1` [Prochloraz], 11.2 min.

Turning to `CN1CCN(CCCN2c3ccccc3Sc3ccc(Cl)cc32)CC1` [Prochlorperazine], the LC retention time was 9.89 min.

Turning to `OC(CCN1CCCC1)(c1ccccc1)C1CCCCC1` (centres undefined) [Procyclidine], the LC retention time was 7.8 min. Next, `CC12CC1(C)C(=O)N(c1cc(Cl)cc(Cl)c1)C2=O` (centres undefined) [Procymidone]: 10.2 min. Under `CCCSP(=O)(OCC)Oc1ccc(Br)cc1Cl` (centres undefined) [Profenophos] stands 12 min; under `CC(=O)C1CCC2C3CCC4=CC(=O)CCC4(C)C3CCC12C` (centres undefined) [Progesterone], 11.2 min; under `CC(C)N=C(N)N=C(N)Nc1ccc(Cl)cc1` [Proguanil], 6.98 min.

With `CCC(=O)C1C(=O)CC(C(=O)O)CC1=O` (centres undefined) [Prohexadione], the LC retention time was 5.63 min. For `CCCC(Cc1ccccc1)N1CCCC1` (centres undefined) [Prolintane], the LC retention time is 5.56 min.
